# Where two headings read alike, the source gives them in different places.
# Columns and labels:
# [1] = system: Cav1.2 (L-type) (verapamil site); test: radioligand binding Cav1.2 (L-type) verapamil site; conditions: 100 µM, rat cerebral cortex
# Method: (§1) Binding/functional studies were performed commercially in Cerep Laboratories (Poitiers, France) using testing procedures described elsewhere. The general information is listed in Table S3 in the Supporting Information.
# (§2) Table S3. The general information of radioligand binding/functional assays. […]
# Ca2+channel (L, verapamil site) (antagonist radioligand) […]
# (§3) Assays were performed commercially in Eurofins Cerep SA (Celle l’Evescault, France) and Eurofins
# (§4) Panlabs Discovery Services Taiwan, Ltd. (New Taipei City, Taiwan), using procedures describe
# [2] = biological target: T1, Cav2.2 N-type (Rattus norvegicus, UniProt P54290); test: radioligand binding Cav2.2 N-type; conditions: rat cerebral cortex, antagonist radioligand
# T1 construct: Rat cerebral cortex; tissue Cerep Laboratories / Eurofins (contract assay); host or cells: rat cerebral cortex
# T1 sequence (P54290 25-944 limits assumed): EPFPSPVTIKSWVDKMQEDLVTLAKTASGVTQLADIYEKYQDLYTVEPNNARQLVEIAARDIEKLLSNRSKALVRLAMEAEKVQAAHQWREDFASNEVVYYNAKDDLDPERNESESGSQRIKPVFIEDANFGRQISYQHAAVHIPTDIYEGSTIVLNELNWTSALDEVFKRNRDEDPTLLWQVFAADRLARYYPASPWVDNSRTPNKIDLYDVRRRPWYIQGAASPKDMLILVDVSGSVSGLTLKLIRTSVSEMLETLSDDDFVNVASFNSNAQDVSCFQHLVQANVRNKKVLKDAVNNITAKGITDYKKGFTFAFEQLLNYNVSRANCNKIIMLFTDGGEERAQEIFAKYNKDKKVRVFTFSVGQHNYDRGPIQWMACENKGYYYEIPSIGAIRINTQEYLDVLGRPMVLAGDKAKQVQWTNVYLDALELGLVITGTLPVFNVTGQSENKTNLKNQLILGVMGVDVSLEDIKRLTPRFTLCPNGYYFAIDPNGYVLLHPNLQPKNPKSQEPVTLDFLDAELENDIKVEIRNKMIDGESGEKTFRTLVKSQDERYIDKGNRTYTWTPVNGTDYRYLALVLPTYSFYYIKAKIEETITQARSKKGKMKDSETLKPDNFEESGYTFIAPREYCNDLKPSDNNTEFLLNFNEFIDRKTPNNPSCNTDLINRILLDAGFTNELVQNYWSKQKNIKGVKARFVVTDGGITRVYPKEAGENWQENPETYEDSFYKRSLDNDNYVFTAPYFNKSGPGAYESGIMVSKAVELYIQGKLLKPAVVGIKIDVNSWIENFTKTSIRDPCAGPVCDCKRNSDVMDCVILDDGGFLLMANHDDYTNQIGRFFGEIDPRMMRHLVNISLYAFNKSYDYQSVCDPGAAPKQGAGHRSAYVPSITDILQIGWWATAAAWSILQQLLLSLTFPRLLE
# T1 sequence (P54290 945-1091 limits assumed): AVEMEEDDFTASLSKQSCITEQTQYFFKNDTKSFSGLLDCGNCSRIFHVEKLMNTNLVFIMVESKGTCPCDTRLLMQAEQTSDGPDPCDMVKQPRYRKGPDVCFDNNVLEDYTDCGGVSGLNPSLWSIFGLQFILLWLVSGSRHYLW
# Method: as §1, §2
# N-type Ca2+ [3H] Gabapentin binding (antagonist radioligand) […]
# as §3, §4
# [3] = system: HepG2 cells; test: hepatocytotoxicity MTT viability assay; format: cell-based, human; conditions: 1–50 µM, 24 h
# Method: To evaluate selected compounds’ hepatocytotoxicity and neurocytotoxicity, a human hepatocellular carcinoma cell line, HepG2 (ATCC® HB-8065™), and a human neuroblastoma cell line, SH-SY5Y (ATCC®, CRL-2266™), were used. Both cell lines were cultured in standard culture conditions (5% CO2, 37 °C, 95% humidity) using Dulbecco′s Modified Eagle′s—Medium (DMEM; Gibco, Thermo Scientific, Waltham, MA, USA) supplemented with 10% (vol/vol) fetal bovine serum (FBS; Gibco, Thermo Scientific, Waltham, MA, USA) and an antibiotic mixture (Penicillin, Streptomycin, Amphotericin B; Gibco, Thermo Scientific, Waltham, MA, USA). Cells were cultured with compounds 5, […], or 39 (1–50 µM) for 24 h and then an MTT (3-(4,5-dimethylthiazol-2-yl)-2,5diphenyltetrazolium bromide, Sigma-Aldrich, St. Louis, MO, USA) viability assay was performed. The formazan crystals were dissolved in DMSO (Sigma-Aldrich, St. Louis, MO, USA), and the absorbance at 570 nm was measured using a microplate reader (SpectraMax® iD3, Molecular Devices, San Jose, CA, USA). The experiment was performed three times in duplicate. Each bar represents the mean (±SEM) percentage of viable cells in comparison to the control (defined as 100% and represented by untreated cells).
# Figure 2 The viability of HepG2 cells incubated in the presence of 5, 17, and 39. HepG2 cells were exposed to growing concentrations (1–50 µM) of tested compounds for 24 h. Cell viability was measured using an MTT assay. Bars represent mean percent of cell viability normalized to non-treated cells (100%) ± SEM. The doxorubicin was tested as a positive control.
# [4] = system: 6 Hz (44 mA) seizures; test: 6 Hz (44 mA) psychomotor seizure model
# [5] = system: maximal electroshock (MES) seizures; test: maximal electroshock seizure (MES) test; format: in vivo, mice
# From the text: Epilepsy is a multifaceted disorder with often unclear etiology, making it challenging to pinpoint a specific receptor or transporter as the definitive target. Consequently, the discovery of ASMs deviates from the traditional drug development pathway, which typically involves designing a new molecule, docking it with a specific biological target, and performing chemical synthesis, followed by in vitro assays. Instead, numerous animal seizure models, which mirror various types of human epileptic seizures, are initially employed in the process of new ASM discovery. This approach has been instrumental in the identification and introduction into clinical practice of all currently used ASMs and continues to be a cornerstone in the preclinical development of new anticonvulsants. The primary justification for prioritizing in vivo screening over in vitro binding and functional studies is the complex and often not fully elucidated mechanisms of action of known ASMs. This approach also facilitates the discovery of compounds with novel, previously undefined pharmacodynamic properties. In light of this, we evaluated all compounds obtained in the current studies using the MES test, which remains one of the most valuable preclinical screening models for tonic-clonic seizures, as well as partial convulsions with or without secondary generalization in humans. This test allows for a comprehensive assessment of the anticonvulsant efficacy of new ASM candidates and is considered highly relevant for predicting their therapeutic efficacy in human epilepsy. The MES test was carried out in mice following the intraperitoneal (i.p.) administration of a screening dose of 100 mg/kg in a group consisting of four animals. The efficacy of the compounds synthesized was evaluated at 0.5 h pretreatment time.
# Fresh solutions were prepared daily for each experimentation session.
# Each group consisted of six animals.
# [6] = system: 6 Hz (32 mA) seizures; test: 6 Hz (32 mA) psychomotor seizure model;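 further: adult male albino Swiss CD-1 mice, each used once, with compounds suspended in 1% Tween 80 in water as vehicle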
# [7] = system: Cav1.2 (L-type) (dihydropyridine site); test: radioligand binding Cav1.2 (L-type) dihydropyridine site; conditions: 100 µM, rat cerebral cortex
# Method: as §1
# Table S3. The general information of radioligand binding/functional assays.
# Ca2+channel (L, dihydropyridine site) (antagonist radioligand) […]
# as §3, §4
compound,measurement,setting,value
"CC(C(=O)NCc1ccc(OCc2ccccc2)cc1)N1C(=O)CCC1=O (stereo not drawn) [Compound 5, N-(4-(benzyloxy)benzyl)-2-(2,5-dioxopyrrolidin-1-yl)propanamide]",% Inhibition of Control Specific Binding,[1],57.1 (100) %
same,% Inhibition of Control Specific Binding,[2]; 100 µM,no significant interaction
same,inhibition at 100 µM,[2]; read-out: % Inhibition of Control Specific Binding,1.1%
same,toxic effect on HepG2 cell viability (MTT),[3],do not exhibit toxic effects
same,ED50,"[4]; Mus musculus, ip, 0.5 h, read-out: ED50 6 Hz (44 mA)",201 mg/kg
same,PI (TD50/ED50) 6 Hz (44 mA),[4]; TD50 rotarod / ED50 6 Hz (44 mA),>1.5
same,responders at 100 mg/kg,"[5]; Mus musculus, ip, mice i.p., 100 mg/kg, 0.5 h, four mice, read-out: protection (efficacy) in the MES screening",100%
same,ED50,"[5]; Mus musculus, ip, mice i.p., TPE 0.5 h, 95% confidence interval in parentheses",48 mg/kg
same,responders at 100 mg/kg,"[5]; Mus musculus, ip, mice i.p., dose of 100 mg/kg, pretreatment time 0.5 h, read-out: MES test: number of mice protected / number of mice tested (converted)",100%
same,PI (TD50/ED50) MES,[5]; TD50 rotarod / ED50 MES,> 6.3
same,ED50,"[6]; Mus musculus, ip, 0.5 h, read-out: ED50 6 Hz (32 mA), mice i.p., TPE 0.5 h, 95% confidence interval in parentheses",45.2 mg/kg
same,responders at 100 mg/kg,"[6]; Mus musculus, ip, 0.5 h, read-out: protection (efficacy) in the 6 Hz (32 mA) screening",50%
same,PI (TD50/ED50) 6 Hz,[6]; TD50 rotarod / ED50 6 Hz (32 mA),> 6.6
same,ED50 6 Hz (32 mA),"[6]; mice i.p., TPE 0.5 h, 95% confidence interval in parentheses",45.19 (37.31–54.73) mg/kg
same,% Inhibition of Control Specific Binding,[7],82.3 (100) %
